# Like-named read-outs stand apart in the source and are kept apart here. Non-standard residues stand in square brackets, D forms with d. No end group written: not given here. *: point of attachment. Biotin = O=C1N[C@H]2[C@H](CS[C@H]2CCCCC(=O)*)N1; R(dz) = photo-arginine
# Tested on: HEK293T nuclear lysates
# Assay: SILAC‐based pull‐down proteomics H4K5acK8ac/H4K5 (probes 8/5)
# Assay type: binding, human
substance,measurement,setting,value
probe 8: H4K5acK8ac peptide probe with photo‐arginine R(dz) and K(biotin) (SG[R(dz)]GK(Ac)GGK(Ac)GLGKGGK(Biotin)),A6 log2 (H4K5ac8ac/H4K5),,0.04066
same,B6 log2 (H4K5ac8ac/H4K5),,0.03161
same,proteins enriched (SILAC proteomics H4K5acK8ac/H4K5),"365 nm UV 30 min, streptavidin enrichment, n = 2",YEATS4 was enriched
same,A6 log2 (H4K5ac8ac/H4K5),"protein ACO2 (Q99798), replicate A6",0.4428
same,B6 log2 (H4K5ac8ac/H4K5),"protein ACO2 (Q99798), replicate B6",0.07379
same,A6 log2 (H4K5ac8ac/H4K5),"protein ACOT7 (O00154), replicate A6",0.4709
same,B6 log2 (H4K5ac8ac/H4K5),"protein ACOT7 (O00154), replicate B6",-0.02566
same,A6 log2 (H4K5ac8ac/H4K5),"protein AGPS (O00116), replicate A6",-0.04144
same,B6 log2 (H4K5ac8ac/H4K5),"protein AGPS (O00116), replicate B6",0.004198
same,A6 log2 (H4K5ac8ac/H4K5),"protein ALDH18A1 (P54886), replicate A6",0.1932
same,B6 log2 (H4K5ac8ac/H4K5),"protein ALDH18A1 (P54886), replicate B6",0.05067
same,A6 log2 (H4K5ac8ac/H4K5),"protein BUB3 (J3QT28), replicate A6",0.07833
same,B6 log2 (H4K5ac8ac/H4K5),"protein BUB3 (J3QT28), replicate B6",0.05185
same,A6 log2 (H4K5ac8ac/H4K5),"protein C11orf84 (Q9BUA3), replicate A6",-0.4738
same,B6 log2 (H4K5ac8ac/H4K5),"protein C11orf84 (Q9BUA3), replicate B6",-0.01921
same,A6 log2 (H4K5ac8ac/H4K5),"protein CCAR1 (Q8IX12), replicate A6",-0.2516
same,B6 log2 (H4K5ac8ac/H4K5),"protein CCAR1 (Q8IX12), replicate B6",-0.018
same,A6 log2 (H4K5ac8ac/H4K5),"protein CCT2 (P78371), replicate A6",0.3921
same,B6 log2 (H4K5ac8ac/H4K5),"protein CCT2 (P78371), replicate B6",0.08005
same,A6 log2 (H4K5ac8ac/H4K5),"protein CCT3 (B4DUR8), replicate A6",0.2904
same,B6 log2 (H4K5ac8ac/H4K5),"protein CCT3 (B4DUR8), replicate B6",0.07923
same,A6 log2 (H4K5ac8ac/H4K5),"protein CHAF1A (Q13111), replicate A6",-0.1099
same,B6 log2 (H4K5ac8ac/H4K5),"protein CHAF1A (Q13111), replicate B6",0.08018
same,A6 log2 (H4K5ac8ac/H4K5),"protein CHD1L (A0A494C1F7), replicate A6",0.1451
same,B6 log2 (H4K5ac8ac/H4K5),"protein CHD1L (A0A494C1F7), replicate B6",0.0657
same,A6 log2 (H4K5ac8ac/H4K5),"protein CORO1B (Q9BR76), replicate A6",0.2889
same,B6 log2 (H4K5ac8ac/H4K5),"protein CORO1B (Q9BR76), replicate B6",0.06919
same,A6 log2 (H4K5ac8ac/H4K5),"protein CPOX (P36551), replicate A6",0.124
same,B6 log2 (H4K5ac8ac/H4K5),"protein CPOX (P36551), replicate B6",0.04785
same,A6 log2 (H4K5ac8ac/H4K5),"protein DNAJA2 (O60884), replicate A6",0.3475
same,B6 log2 (H4K5ac8ac/H4K5),"protein DNAJA2 (O60884), replicate B6",-0.007896
same,A6 log2 (H4K5ac8ac/H4K5),"protein DYNC1LI1 (Q9Y6G9), replicate A6",0.04173
same,B6 log2 (H4K5ac8ac/H4K5),"protein DYNC1LI1 (Q9Y6G9), replicate B6",-0.03653
same,A6 log2 (H4K5ac8ac/H4K5),"protein DYNC1LI2 (O43237), replicate A6",-0.06254
same,B6 log2 (H4K5ac8ac/H4K5),"protein DYNC1LI2 (O43237), replicate B6",-0.0172
same,A6 log2 (H4K5ac8ac/H4K5),"protein EEF1A2 (Q05639), replicate A6",0.1545
same,B6 log2 (H4K5ac8ac/H4K5),"protein EEF1A2 (Q05639), replicate B6",0.03088
same,A6 log2 (H4K5ac8ac/H4K5),"protein EIF3G (O75821), replicate A6",-0.1739
same,B6 log2 (H4K5ac8ac/H4K5),"protein EIF3G (O75821), replicate B6",0.07863
same,A6 log2 (H4K5ac8ac/H4K5),"protein EML4 (Q9HC35), replicate A6",-0.3051
same,B6 log2 (H4K5ac8ac/H4K5),"protein EML4 (Q9HC35), replicate B6",0.01001
same,A6 log2 (H4K5ac8ac/H4K5),"protein EXOSC10 (Q01780), replicate A6",0.04791
same,B6 log2 (H4K5ac8ac/H4K5),"protein EXOSC10 (Q01780), replicate B6",-0.03432
same,A6 log2 (H4K5ac8ac/H4K5),"protein FEN1 (P39748), replicate A6",0.2678
same,B6 log2 (H4K5ac8ac/H4K5),"protein FEN1 (P39748), replicate B6",0.04436
same,A6 log2 (H4K5ac8ac/H4K5),"protein FKBP4 (Q02790), replicate A6",-0.547
same,B6 log2 (H4K5ac8ac/H4K5),"protein FKBP4 (Q02790), replicate B6",-0.03149
same,A6 log2 (H4K5ac8ac/H4K5),"protein FTO (A0A1B0GTY1), replicate A6",0.04491
same,B6 log2 (H4K5ac8ac/H4K5),"protein FTO (A0A1B0GTY1), replicate B6",0.03394
same,A6 log2 (H4K5ac8ac/H4K5),"protein FUBP1 (Q96AE4), replicate A6",-0.499
same,B6 log2 (H4K5ac8ac/H4K5),"protein FUBP1 (Q96AE4), replicate B6",0.06296
same,A6 log2 (H4K5ac8ac/H4K5),"protein GATAD2B (A0A0U1RRM1), replicate A6",0.09181
same,B6 log2 (H4K5ac8ac/H4K5),"protein GATAD2B (A0A0U1RRM1), replicate B6",-0.04991
same,A6 log2 (H4K5ac8ac/H4K5),"protein GMPS (P49915), replicate A6",0.3016
same,B6 log2 (H4K5ac8ac/H4K5),"protein GMPS (P49915), replicate B6",-0.02008
same,A6 log2 (H4K5ac8ac/H4K5),"protein GPKOW (Q92917), replicate A6",-0.007755
same,B6 log2 (H4K5ac8ac/H4K5),"protein GPKOW (Q92917), replicate B6",0.07952
same,A6 log2 (H4K5ac8ac/H4K5),"protein GTF2I (P78347), replicate A6",0.3176
same,B6 log2 (H4K5ac8ac/H4K5),"protein GTF2I (P78347), replicate B6",-0.03285
same,A6 log2 (H4K5ac8ac/H4K5),"protein HADHA (P40939), replicate A6",0.03109
same,B6 log2 (H4K5ac8ac/H4K5),"protein HADHA (P40939), replicate B6",0.08176
same,A6 log2 (H4K5ac8ac/H4K5),"protein HNRNPA2B1 (P22626), replicate A6",-0.08912
same,B6 log2 (H4K5ac8ac/H4K5),"protein HNRNPA2B1 (P22626), replicate B6",0.03979
same,A6 log2 (H4K5ac8ac/H4K5),"protein HNRNPAB (D6R9P3), replicate A6",-0.001487
same,B6 log2 (H4K5ac8ac/H4K5),"protein HNRNPAB (D6R9P3), replicate B6",0.001897
same,A6 log2 (H4K5ac8ac/H4K5),"protein HNRNPD (D6RAF8), replicate A6",-0.05205
same,B6 log2 (H4K5ac8ac/H4K5),"protein HNRNPD (D6RAF8), replicate B6",0.06546
same,A6 log2 (H4K5ac8ac/H4K5),"protein HNRNPM (A0A087X0X3), replicate A6",0.04259
same,B6 log2 (H4K5ac8ac/H4K5),"protein HNRNPM (A0A087X0X3), replicate B6",0.03533
same,A6 log2 (H4K5ac8ac/H4K5),"protein HNRNPUL1 (A0A0A0MRA5), replicate A6",0.04263
same,B6 log2 (H4K5ac8ac/H4K5),"protein HNRNPUL1 (A0A0A0MRA5), replicate B6",0.07976
same,A6 log2 (H4K5ac8ac/H4K5),"protein HSP90AB1 (P08238), replicate A6",0.1705
same,B6 log2 (H4K5ac8ac/H4K5),"protein HSP90AB1 (P08238), replicate B6",-0.003539
same,A6 log2 (H4K5ac8ac/H4K5),"protein ILF3 (Q12906), replicate A6",-0.01185
same,B6 log2 (H4K5ac8ac/H4K5),"protein ILF3 (Q12906), replicate B6",0.0307
same,A6 log2 (H4K5ac8ac/H4K5),"protein IRS4 (O14654), replicate A6",0.9009
same,B6 log2 (H4K5ac8ac/H4K5),"protein IRS4 (O14654), replicate B6",0.04996
same,A6 log2 (H4K5ac8ac/H4K5),"protein KHDRBS1 (Q07666), replicate A6",-0.03568
same,B6 log2 (H4K5ac8ac/H4K5),"protein KHDRBS1 (Q07666), replicate B6",0.03173
same,A6 log2 (H4K5ac8ac/H4K5),"protein KIF23 (A0A2U3TZL8), replicate A6",-0.125
same,B6 log2 (H4K5ac8ac/H4K5),"protein KIF23 (A0A2U3TZL8), replicate B6",0
same,A6 log2 (H4K5ac8ac/H4K5),"protein LARS (Q9P2J5), replicate A6",0.1335
same,B6 log2 (H4K5ac8ac/H4K5),"protein LARS (Q9P2J5), replicate B6",0.07151
same,A6 log2 (H4K5ac8ac/H4K5),"protein LEMD3 (Q9Y2U8), replicate A6",0.3015
same,B6 log2 (H4K5ac8ac/H4K5),"protein LEMD3 (Q9Y2U8), replicate B6",-0.02986
same,A6 log2 (H4K5ac8ac/H4K5),"protein MAZ (I3L2Z5), replicate A6",0.4619
same,B6 log2 (H4K5ac8ac/H4K5),"protein MAZ (I3L2Z5), replicate B6",0.02009
same,A6 log2 (H4K5ac8ac/H4K5),"protein MCM2 (P49736), replicate A6",-0.3105
same,B6 log2 (H4K5ac8ac/H4K5),"protein MCM2 (P49736), replicate B6",0.01892
same,A6 log2 (H4K5ac8ac/H4K5),"protein MCM4 (E5RG31), replicate A6",-0.08812
same,B6 log2 (H4K5ac8ac/H4K5),"protein MCM4 (E5RG31), replicate B6",0.02676
same,A6 log2 (H4K5ac8ac/H4K5),"protein MCM5 (P33992), replicate A6",0.07464
same,B6 log2 (H4K5ac8ac/H4K5),"protein MCM5 (P33992), replicate B6",0.03074
same,A6 log2 (H4K5ac8ac/H4K5),"protein MCM6 (Q14566), replicate A6",0.0904
same,B6 log2 (H4K5ac8ac/H4K5),"protein MCM6 (Q14566), replicate B6",0.06523
same,A6 log2 (H4K5ac8ac/H4K5),"protein MLL2 (O14686), replicate A6",0.2969
same,B6 log2 (H4K5ac8ac/H4K5),"protein MLL2 (O14686), replicate B6",0.009441
same,A6 log2 (H4K5ac8ac/H4K5),"protein MRPL37 (Q9BZE1), replicate A6",0.1893
same,B6 log2 (H4K5ac8ac/H4K5),"protein MRPL37 (Q9BZE1), replicate B6",-0.03363
same,A6 log2 (H4K5ac8ac/H4K5),"protein MYH9 (P35579), replicate A6",0.0533
